This passage reports Kd results from patent US20260327244A1, “PYRIDO[4,3-D]PYRIMIDINE COMPOUNDS” (Pfizer Inc., priority 2022, published 2026).

For assay [1], the target named is T1, wild-type (WT) KRAS (aa1-185) (Homo sapiens, UniProt P01116).
T1 construct: wild-type (WT) KRAS (aa1-185)
The experiment in a line: KRAS Surface Plasma Resonance (SPR) binding assay, WT KRAS. To be noted: SPR at 10 °C, geometric mean when tested more than once. From the text: No additional regeneration was used.
Compound dissociation was monitored for at least 3600 seconds. […] No additional regeneration was used.

Another assay deals with G12D KRAS (aa1-185) (Homo sapiens, UniProt P01116, G12D). The experiment in a line: biochemical.
The next assay addresses G12V KRAS (aa2-184) (Homo sapiens, UniProt P01116, G12V). In words: biochemical.
The target of another assay is G12C KRAS (aa2-184) (Homo sapiens, UniProt P01116, G12C). The experiment in a line: biochemical.
Sequence of G12C KRAS (aa2-184) (P01116 2-184 isoform P01116-2 G12C): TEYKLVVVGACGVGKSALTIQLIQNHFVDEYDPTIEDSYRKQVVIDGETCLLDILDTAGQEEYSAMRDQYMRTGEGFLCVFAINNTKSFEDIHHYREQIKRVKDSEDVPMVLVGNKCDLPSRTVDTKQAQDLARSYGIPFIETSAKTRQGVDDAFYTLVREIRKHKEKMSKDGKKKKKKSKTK

T1 sequence (P01116 1-185 isoform P01116-2): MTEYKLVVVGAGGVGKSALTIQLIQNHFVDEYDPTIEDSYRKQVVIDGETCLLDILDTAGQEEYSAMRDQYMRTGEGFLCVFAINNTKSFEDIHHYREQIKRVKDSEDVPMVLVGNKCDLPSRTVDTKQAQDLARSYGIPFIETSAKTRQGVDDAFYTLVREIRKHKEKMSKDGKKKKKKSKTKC
Sequence of G12V KRAS (aa2-184) (P01116 2-184 isoform P01116-2 G12V): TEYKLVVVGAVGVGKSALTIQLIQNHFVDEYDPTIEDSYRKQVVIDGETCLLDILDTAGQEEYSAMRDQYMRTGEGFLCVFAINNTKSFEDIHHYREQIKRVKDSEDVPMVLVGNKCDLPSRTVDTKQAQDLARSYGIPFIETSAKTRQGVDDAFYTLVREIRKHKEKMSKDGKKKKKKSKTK
Sequence of G12D KRAS (aa1-185) (P01116 1-185 isoform P01116-2 G12D): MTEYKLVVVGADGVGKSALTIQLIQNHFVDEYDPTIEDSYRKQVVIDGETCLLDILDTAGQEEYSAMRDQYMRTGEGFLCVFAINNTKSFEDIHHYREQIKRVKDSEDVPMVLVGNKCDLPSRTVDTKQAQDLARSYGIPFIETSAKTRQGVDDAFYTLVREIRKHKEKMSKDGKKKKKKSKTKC
Method for G12C KRAS (aa2-184): (§1) SPR assay was used to measure the kinetic binding constant (KD) of Examples of the present invention.
(§2) The binding affinity and kinetics of Examples of the present invention were measured by Surface Plasmon Resonance (SPR) using Biacore 8K or 8K+ (Cytiva, Marlborough, MA) instruments. Recombinant, C-terminal site-specific biotinylated, wild-type (WT) KRAS (aa1-185), G12D KRAS (aa1-185), G12C KRAS (aa2-184), G12V KRAS (aa2-184), WT HRAS (aa2-184) and WT NRAS (aa2-185) proteins purified in presence of 1 μM GDP were used in these experiments. Binding measurements were performed parallelly in sets of either WT/G12D/G12C/G12V KRAS or WT K/H/N RAS proteins.
(§3) Biacore instrument was desorbed and docked with a Series S Sensor Chip SA. The proteins were diluted to 50 μg/mL with the assay buffer (50 mM HEPES, 150 mM NaCl, 10 μM GDP, 5 mM MgCl2, 0.5 mM TCEP, 5% glycerol, 0.02% Tween-20, 2% DMSO, pH 7.2) and immobilized at a flow rate of 3 μL/min at 10° C. with a contact time of 15 min. to capture ~3000-4000 RUs of proteins on the surface. The functionalized surface was then equilibrated with assay buffer for approximately 1 hour. Un-functionalized SA surfaces with no immobilized protein served as reference for binding kinetic analysis. Compound binding kinetics were measured in either multi-cycle or single-cycle kinetic format.
(§4) A 2-fold, 10-point serial dilution of test compounds was set-up in a 96-well microplate (Greiner; Cat #650101) with a top concentration of either 10 μM or 100 μM. Binding kinetics was measured at 10° C. by injecting serial dilution of compounds onto both reference and RAS immobilized channels at a flow rate of 100 μL/min and association time of 90 seconds. Compound dissociation was monitored for at least 400 seconds during each cycle. No additional regeneration was used. DMSO calibration curve was obtained before and after compound analysis by injecting 0-4% of DMSO in assay buffer. A suitable compound with known affinity and kinetics was tested once in every experiment as a positive control to assess activity of the captured protein on the surface.
(§5) A 3-fold, 6-point serial dilution of compounds was set-up in a deep 96-well microplate (Greiner Bio; Cat #780201) with the highest concentration of 1 μM (concentration range: 0.004-1 μM). Binding kinetics was measured at 10° C. by injecting serial dilutions of compounds in increasing order onto reference as well as RAS immobilized channels at a flow rate of 100 μL/min and association time of 120 seconds. Compound dissociation was monitored for at least 3600 seconds. Two buffer blanks were also run in a single-cycle kinetics format before the compound run for double referencing. No additional regeneration was used. DMSO calibration curve was obtained before and after compound analysis by injecting 0-4% of DMSO in the assay buffer. A suitable compound with known affinity and kinetics was tested once in every experiment as a positive control to assess activity of the captured protein on the surface.
(§6) Both MCK and SCK data were processed and analyzed using Biacore Insight evaluation software (Cytiva, Marlborough, MA)). […] The adequateness of the fit was judged by c^2 values and the randomness of residue distribution.
(§7) A geometric mean of binding constant KD was provided when an Example was tested more than once (n is testing replicate number).
Method for G12D KRAS (aa1-185): as §1, §2, §3, §4, §5, §6, §7
Method for G12V KRAS (aa2-184): as §1, §2, §3, §4, §5, §6, §7

As a reminder, the Kd is the concentration at which binding is half-saturated. Read a high Kd as lower affinity. In the case of `C#Cc1c(F)ccc2cccc(-c3nc4c5c(nc(OC[C@@]67CCCN6C[C@H](F)C7)nc5c3F)N3C[C@@H](O)CC[C@H]3CO4)c12` [Example 30, (8aS,11S)-5-(8-ethynyl-7-fluoronaphthalen-1-yl)-4-fluoro-2-{[(2R,7aS)-2-fluorotetrahydro-1H-pyrrolizin-7a(5H)-yl]methoxy}-8,8a,9,10,11,12-hexahydro-7-oxa-1,3,6,12a-tetraazabenzo[4,5]cyclohepta[1,2,3-de]naphthalen-11-ol], the Kd in assay [1] was found to be 2.58 nM; at G12D KRAS (aa1-185), 0.25 nM; at G12V KRAS (aa2-184), 0.24 nM; on G12C KRAS (aa2-184) it was 1.1 nM.
The like results for `C#Cc1c(F)ccc2cc(O)cc(-c3ncc4c(N5CCC[C@@H](CC#N)C5)nc(OC[C@@]56CCCN5C[C@H](F)C6)nc4c3F)c12` [Example 15, {(3S)-1-[7-(8-ethynyl-7-fluoro-3-hydroxynaphthalen-1-yl)-8-fluoro-2-{[(2R,7aS)-2-fluorotetrahydro-1H-pyrrolizin-7a(5H)-yl]methoxy}pyrido[4,3-d]pyrimidin-4-yl]piperidin-3-yl}acetonitrile] were, in that order, 0.118 nM, 0.128 nM, 0.274 nM and 0.749 nM.
The matching figures for `C#Cc1cccc2cc(O)cc(-c3ncc4c(N5CCC[C@@](C)(CC#N)C5)nc(OC[C@@]56CCCN5C[C@H](F)C6)nc4c3F)c12` [Example 8, {(3S)-1-[7-(8-ethynyl-3-hydroxynaphthalen-1-yl)-8-fluoro-2-{[(2R,7aS)-2-fluorotetrahydro-1H-pyrrolizin-7a(5H)-yl]methoxy}pyrido[4,3-d]pyrimidin-4-yl]-3-methylpiperidin-3-yl}acetonitrile]: 0.398 nM, 1.69 nM, 11.5 nM and 1.54 nM.
As to `C#Cc1cccc2cc(O)cc(-c3ncc4c(N5C[C@@H]6C[C@H](C5)[C@H](O)C6)nc(OC[C@@]56CCCN5C[C@H](F)C6)nc4c3F)c12` [Example 9, (1R,5R,6R)-3-[7-(8-ethynyl-3-hydroxynaphthalen-1-yl)-8-fluoro-2-{[(2R,7aS)-2-fluorotetrahydro-1H-pyrrolizin-7a(5H)-yl]methoxy}pyrido[4,3-d]pyrimidin-4-yl]-3-azabicyclo[3.2.1]octan-6-ol], the dissociation constant Kd in assay [1] came out at 0.019 nM; at G12D KRAS (aa1-185), 0.099 nM; at G12V KRAS (aa2-184) it was 0.308 nM; at G12C KRAS (aa2-184), 0.447 nM.
The matching figures for `C#Cc1c(F)ccc2cc(O)cc(-c3nc4c5c(nc(OC[C@@]67CCCN6C[C@H](F)C7)nc5c3F)N3CCC[C@@H](O)[C@H]3CO4)c12` [Example 28, (8aR,9R)-5-(8-ethynyl-7-fluoro-3-hydroxynaphthalen-1-yl)-4-fluoro-2-{[(2R,7aS)-2-fluorotetrahydro-1H-pyrrolizin-7a(5H)-yl]methoxy}-8,8a,9,10,11,12-hexahydro-7-oxa-1,3,6,12a-tetraazabenzo[4,5]cyclohepta[1,2,3-de]naphthalen-9-ol]: 0.061 nM, 0.03 nM, 0.028 nM and 0.064 nM.
For `C#Cc1cccc2cc(O)cc(-c3ncc4c(N5C[C@H]6C[C@@H](O)[C@@H](C5)O6)nc(OC[C@@]56CCCN5C[C@H](F)C6)nc4c3F)c12` (relative stereo) [Example 18, (1R*,5R*,6R*)-3-[7-(8-ethynyl-3-hydroxynaphthalen-1-yl)-8-fluoro-2-{[(2R,7aS)-2-fluorotetrahydro-1H-pyrrolizin-7a(5H)-yl]methoxy}pyrido[4,3-d]pyrimidin-4-yl]-8-oxa-3-azabicyclo[3.2.1]octan-6-ol], the Kd in assay [1] is 0.092 nM; at G12D KRAS (aa1-185), 0.214 nM; at G12V KRAS (aa2-184), 0.13 nM; on G12C KRAS (aa2-184), 0.759 nM.
As for `C#Cc1c(F)c(F)cc2cc(O)cc(-c3nc4c5c(nc(OC[C@@]67CCCN6C[C@H](F)C7)nc5c3F)N3CCCC[C@H]3CO4)c12` [Example 32, 5-ethynyl-6,7-difluoro-4-[(8aS)-4-fluoro-2-{[(2R,7aS)-2-fluorotetrahydro-1H-pyrrolizin-7a(5H)-yl]methoxy}-8,8a,9,10,11,12-hexahydro-7-oxa-1,3,6,12a-tetraazabenzo[4,5]cyclohepta[1,2,3-de]naphthalen-5-yl]naphthalen-2-ol], the Kd was 0.009 nM in assay [1], 0.004 nM at G12D KRAS (aa1-185), 0.004 nM on G12V KRAS (aa2-184) and 0.004 nM on G12C KRAS (aa2-184).
On to `Oc1cc(-c2ncc3c(N4C[C@@H]5C[C@H](C4)[C@H](O)C5)nc(OC[C@@]45CCCN4C[C@H](F)C5)nc3c2F)c2ccccc2c1` [Example 17, (1R,5R,6R)-3-[8-fluoro-2-{[(2R,7aS)-2-fluorotetrahydro-1H-pyrrolizin-7a(5H)-yl]methoxy}-7-(3-hydroxynaphthalen-1-yl)pyrido[4,3-d]pyrimidin-4-yl]-3-azabicyclo[3.2.1]octan-6-ol], for which the dissociation constant (Kd) came out at 0.362 nM in assay [1], 0.553 nM at G12D KRAS (aa1-185), 0.269 nM on G12V KRAS (aa2-184) and 0.963 nM on G12C KRAS (aa2-184).
Regarding `C#Cc1c(F)ccc2cc(O)cc(-c3nc4c5c(nc(OC[C@@]67CCCN6C[C@H](F)C7)nc5c3F)N(CCO)CCO4)c12` [Example 26, 5-ethynyl-6-fluoro-4-[4-fluoro-2-{[(2R,7aS)-2-fluorotetrahydro-1H-pyrrolizin-7a(5H)-yl]methoxy}-10-(2-hydroxyethyl)-9,10-dihydro-8H-7-oxa-1,3,6,10-tetraazacyclohepta[1,2,3-de]naphthalen-5-yl]naphthalen-2-ol], the Kd in assay [1] amounted to 0.014 nM; on G12D KRAS (aa1-185), 0.046 nM; on G12V KRAS (aa2-184) it was 0.117 nM; on G12C KRAS (aa2-184) it was 0.031 nM.
Regarding `C#Cc1cccc2cc(O)cc(-c3ncc4c(N5CC[C@@H](CC#N)C5)nc(OC[C@@]56CCCN5C[C@H](F)C6)nc4c3F)c12` [Example 6, {(3S)-1-[7-(8-ethynyl-3-hydroxynaphthalen-1-yl)-8-fluoro-2-{[(2R,7aS)-2-fluorotetrahydro-1H-pyrrolizin-7a(5H)-yl]methoxy}pyrido[4,3-d]pyrimidin-4-yl]pyrrolidin-3-yl}acetonitrile], the Kd in assay [1] is 1.89 nM; on G12D KRAS (aa1-185) it was 2.43 nM; on G12V KRAS (aa2-184) it was 1.35 nM; on G12C KRAS (aa2-184), 2.67 nM.
The matching figures for `C#Cc1cccc2cc(O)cc(-c3ncc4c(N5CC[C@@](C)(CC#N)C5)nc(OC[C@@]56CCCN5C[C@H](F)C6)nc4c3F)c12` [Example 5, {(3S)-1-[7-(8-ethynyl-3-hydroxynaphthalen-1-yl)-8-fluoro-2-{[(2R,7aS)-2-fluorotetrahydro-1H-pyrrolizin-7a(5H)-yl]methoxy}pyrido[4,3-d]pyrimidin-4-yl]-3-methylpyrrolidin-3-yl}acetonitrile]: 2.89 nM, 10.5 nM, 22.1 nM and 11.4 nM.
The matching figures for `C#Cc1cccc2cc(O)cc(-c3ncc4c(N5CCC[C@@H](CC#N)C5)nc(OC[C@@]56CCCN5C[C@H](F)C6)nc4c3F)c12` [Example 1, {(3S)-1-[7-(8-ethynyl-3-hydroxynaphthalen-1-yl)-8-fluoro-2-{[(2R,7aS)-2-fluorotetrahydro-1H-pyrrolizin-7a(5H)-yl]methoxy}pyrido[4,3-d]pyrimidin-4-yl]piperidin-3-yl}acetonitrile]: 0.273 nM, 0.268 nM, 0.454 nM and 1.23 nM.
Regarding `C#Cc1cccc2cc(O)cc(-c3ncc4c(N5C[C@H](CC#N)[C@@H](F)C5)nc(OC[C@@]56CCCN5C[C@H](F)C6)nc4c3F)c12` (mixture of isomers) [Example 7, {(3SR,4RS)-1-[7-(8-ethynyl-3-hydroxynaphthalen-1-yl)-8-fluoro-2-{[(2R,7aS)-2-fluorotetrahydro-1H-pyrrolizin-7a(5H)-yl]methoxy}pyrido[4,3-d]pyrimidin-4-yl]-4-fluoropyrrolidin-3-yl}acetonitrile], the Kd worked out at 2.55 nM in assay [1], 11.4 nM on G12D KRAS (aa1-185), 6.71 nM at G12V KRAS (aa2-184) and 8.33 nM at G12C KRAS (aa2-184).
The matching figures for `C#Cc1c(F)ccc2cccc(-c3nc4c5c(nc(OC[C@@]67CCCN6C[C@H](F)C7)nc5c3F)N3CCCC[C@H]3CO4)c12` [Example 29, (8aS)-5-(8-ethynyl-7-fluoronaphthalen-1-yl)-4-fluoro-2-{[(2R,7aS)-2-fluorotetrahydro-1H-pyrrolizin-7a(5H)-yl]methoxy}-8,8a,9,10,11,12-hexahydro-7-oxa-1,3,6,12a-tetraazabenzo[4,5]cyclohepta[1,2,3-de]naphthalene]: 5.75 nM, 1.55 nM, 1.48 nM and 3.65 nM.
The matching figures for `C#Cc1cccc2cc(O)cc(-c3ncc4c(N5C[C@@H]6C[C@H](O)[C@H](C5)O6)nc(OC[C@@]56CCCN5C[C@H](F)C6)nc4c3F)c12` (single isomer, unassigned) [Example 19, (1S*,5S*,6S*)-3-[7-(8-ethynyl-3-hydroxynaphthalen-1-yl)-8-fluoro-2-{[(2R,7aS)-2-fluorotetrahydro-1H-pyrrolizin-7a(5H)-yl]methoxy}pyrido[4,3-d]pyrimidin-4-yl]-8-oxa-3-azabicyclo[3.2.1]octan-6-ol]: 27.9 nM, 78.3 nM, 91.7 nM and 84.7 nM.
For `C#Cc1cccc2cc(O)cc(-c3ncc4c(N5C[C@H]6CC[C@@H](C5)O6)nc(OC[C@@]56CCCN5C[C@H](F)C6)nc4c3F)c12` [Example 2, 5-ethynyl-4-(8-fluoro-2-{[(2R,7aS)-2-fluorotetrahydro-1H-pyrrolizin-7a(5H)-yl]methoxy}-4-[(1R,5S)-8-oxa-3-azabicyclo[3.2.1]octan-3-yl]pyrido[4,3-d]pyrimidin-7-yl)naphthalen-2-ol], the Kd in assay [1] was found to be 0.422 nM; at G12D KRAS (aa1-185) it was 1.89 nM; on G12V KRAS (aa2-184), 0.515 nM; on G12C KRAS (aa2-184), 1.64 nM.
